This is an account of results in patent US8273769B2, “Phenoxy acetic acid derivatives” (Merck Serono SA, priority 2009, dated 2012).

The structures appear in SMILES notation.

The test addresses T1, CRTH2 (Homo sapiens, UniProt Q9Y5Y4).
T1 sequence (Q9Y5Y4 1-395): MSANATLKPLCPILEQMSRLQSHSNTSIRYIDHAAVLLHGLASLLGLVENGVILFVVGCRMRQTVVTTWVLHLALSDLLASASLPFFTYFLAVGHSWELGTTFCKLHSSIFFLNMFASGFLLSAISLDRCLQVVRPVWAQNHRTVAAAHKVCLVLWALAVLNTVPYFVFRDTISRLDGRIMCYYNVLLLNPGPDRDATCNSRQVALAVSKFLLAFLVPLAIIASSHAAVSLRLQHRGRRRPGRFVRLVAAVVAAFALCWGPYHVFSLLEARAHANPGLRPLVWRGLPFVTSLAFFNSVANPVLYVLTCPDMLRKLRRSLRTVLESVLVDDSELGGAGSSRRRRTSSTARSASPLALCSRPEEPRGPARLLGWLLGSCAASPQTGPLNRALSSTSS
Briefly: Radioligand binding Scintillation Proximity Assay ([3H]PGD2, hCRTH2-CHO cell membranes). Details: host or cells: CHO cells. To be noted: 1.5 nM [3H]PGD2, hCRTH2-CHO cell membranes, SPA. On the procedure: Adherent CHO cells expressing hCRTH2 (Euroscreen, Belgium) were cultured in 225 cm^2 cell culture flasks (Corning, USA) in 30 ml of medium. After two rinses of phosphate buffered saline (PBS), cells were harvested in 10 ml of PBS containing 1 mM EDTA, centrifuged at 500×g for 5 min at 4° C. and frozen at −80° C. The pellet was re-suspended in 50 mM Tris-HCl, pH 7.4, 2 mM EDTA, 250 mM Sucrose, containing protease inhibitor cocktail tablets, (Complete EDTA-free, Roche, Germany) and incubated 30 min at 4° C. Cells were disrupted by nitrogen cavitation (Parr Instruments, USA) at 4° C. (800 p.s.i. for 30 min), and centrifuged at 500×g for 10 min at 4° C. Pellet containing nuclei and cellular debris was discarded and supernatant was centrifuged 60 min at 4° C. at 45000×g. Membrane pellet was re-suspended in storage buffer (10 mM HEPES/KOH pH 7.4, 1 mM EDTA, 250 mM sucrose, protease inhibitor cocktail tablets) using Dounce homogenization and frozen in liquid nitrogen, and stored at −80° C.
The inhibitory activity can be investigated by a radioligand binding Scintillation Proximity Assay (SPA) (Sawyer et al., Br. J. Pharmocol 2002, 137, 1163-72). The SPA radioligand binding assay was performed at room temperature in binding buffer (10 mM HEPES/KOH pH 7.4, 10 mM MnCl2, with protease inhibitor cocktail tablets), containing 1.5 nM [^3H]PGD2 (Perkin Elmer), 10-50 μg/ml of hCRTH2-CHO cell membrane protein and 2 mg/ml of Wheat-germ agglutinin Sintillation Proximity Assay beads (RPNQ0001, GE-Healthcare) in a final volume of 100 μl in 96 well plates (Corning, USA). Non-specific binding was determined in the presence of 10 μM PGD2 (Cayman, USA). Competing Compounds of Formula (I) were diluted in dimethylsulphoxide so that the total volume of dimethylsulfoxide was kept constant at 1% dimethylsulphoxide (Me2SO). Serial dilutions of 100 μM to 100 pM were prepared and 10 μl each of the compounds of Formula (I) stock solutions were added to the binding assay reagents and incubated for 90 min with agitation at room temperature. Binding activity was determined by using a 1450 Micro-beta scintillation counter (Wallac, UK).
`CCCS(=O)(=O)c1cccc(C#Cc2cc(F)ccc2OCC(=O)O)c1` [Example 99, (4-fluoro-2-{[3-(propylsulfonyl)phenyl]ethynyl}phenoxy)acetic acid] came in with an IC50 of 79 nM. That is a double-digit nanomolar value.
For the molecule `Cc1ccc(S(=O)(=O)N2CCCCC2C)cc1C#Cc1cc(Cl)ccc1OCC(=O)O` (stereo not drawn) [Example 108, [4-chloro-2-({2-methyl-5-[(2-methylpiperidin-1-yl)sulfonyl]phenyl}ethynyl)-phenoxy]acetic acid], the IC50 worked out at 2 nM.
With `Cc1ccc(S(=O)(=O)N(C)CC(C)C)cc1C#Cc1cc(Cl)ccc1OCC(=O)O` [Example 110, {4-chloro-2-[(5-{[isobutyl(methyl)amino]sulfonyl}-2-methylphenyl)ethynyl]phenoxy}acetic acid], the IC50 stood at 5 nM.
`CCCCN(C)S(=O)(=O)c1ccc(C)c(C#Cc2cc(Cl)ccc2OCC(=O)O)c1` [Example 111, {2-[(5-{[butyl(methyl)amino]sulfonyl}-2-methylphenyl)ethynyl]-4-chlorophenoxy}acetic acid]: the IC50 turned out to be 6 nM. This IC50 and that of the molecule before are within 1.5-fold of each other.
Molecule `Cc1ccc(S(=O)(=O)N2CCN(C)CC2)cc1C#Cc1cc(Cl)ccc1OCC(=O)O` [Example 112, [4-chloro-2-({2-methyl-5-[(4-methylpiperazin-1-yl)sulfonyl]phenyl}ethynyl)phenoxy]acetic acid] came in with an IC50 of 27 nM.
Turning to `Cc1ccc(S(=O)(=O)NCC(C)(C)C)cc1C#Cc1cc(Cl)ccc1OCC(=O)O` [Example 113, {4-chloro-2-[(5-{[(2,2-dimethylpropyl)amino]sulfonyl}-2-methylphenyl)ethynyl]phenoxy}acetic acid], the IC50 is 2 nM.
Next, `CCC(C)NS(=O)(=O)c1ccc(C)c(C#Cc2cc(Cl)ccc2OCC(=O)O)c1` (stereo not drawn) [Example 114, [2-({5-[(sec-butylamino)sulfonyl]-2-methylphenyl}ethynyl)-4-chlorophenoxy]acetic acid]: 3 nM.
For the molecule `CCCN(C)S(=O)(=O)c1ccc(C)c(C#Cc2cc(Cl)ccc2OCC(=O)O)c1` [Example 115, {4-chloro-2-[(2-methyl-5-{[methyl(propyl)amino]sulfonyl}phenyl)ethynyl]phenoxy}acetic acid], the IC50 worked out at 5 nM.
Next, `CCCN(CCC)S(=O)(=O)c1ccc(C)c(C#Cc2cc(Cl)ccc2OCC(=O)O)c1` [Example 116, [4-chloro-2-({5-[(dipropylamino)sulfonyl]-2-methylphenyl}ethynyl)phenoxy]acetic acid]: 8 nM; `CCCNS(=O)(=O)c1ccc(C)c(C#Cc2cc(Cl)ccc2OCC(=O)O)c1` [Example 118, [4-chloro-2-({2-methyl-5-[(propylamino)sulfonyl]phenyl}ethynyl)phenoxy]acetic acid]: 4 nM.
In turn, `Cc1ccc(S(=O)(=O)N(C)CCCN(C)C)cc1C#Cc1cc(Cl)ccc1OCC(=O)O` [Example 119, {4-chloro-2-[(5-{[[3-(dimethylamino)propyl](methyl)amino]sulfonyl}-2-methylphenyl)ethynyl]phenoxy}acetic acid] had an IC50 of 369 nM. Compared with the last molecule, the IC50 is about 92-fold higher.
Turning to `Cc1ccc(S(N)(=O)=O)cc1C#Cc1cc(Cl)ccc1OCC(=O)O` [Example 120, (2-{[5-(aminosulfonyl)-2-methylphenyl]ethynyl}-4-chlorophenoxy)acetic acid], the IC50 was 25 nM.
In turn, `Cc1ccc(S(=O)(=O)N(C)C2CCCC2)cc1C#Cc1cc(Cl)ccc1OCC(=O)O` [Example 121, {4-chloro-2-[(5-{[cyclopentyl(methyl)amino]sulfonyl}-2-methylphenyl)ethynyl]phenoxy}acetic acid] came in with an IC50 of 8 nM.
Take `Cc1ccc(S(=O)(=O)N(C)CCN(C)C)cc1C#Cc1cc(Cl)ccc1OCC(=O)O` [Example 122, {4-chloro-2-[(5-{[[2-(dimethylamino)ethyl](methyl)amino]sulfonyl}-2-methylphenyl)ethynyl]phenoxy}acetic acid]: the IC50 turned out to be 452 nM.
For `Cc1ccc(S(=O)(=O)N2CCC2)cc1C#Cc1cc(Cl)ccc1OCC(=O)O` [Example 123, (2-{[5-(azetidin-1-ylsulfonyl)-2-methylphenyl]ethynyl}-4-chlorophenoxy)acetic acid], the IC50 is 5 nM.
Molecule `O=C(O)COc1ccc(Cl)cc1C#Cc1ccc(C(=O)N2CCOCC2)cc1` [Example 124, (4-chloro-2-{[4-(morpholin-4-ylcarbonyl)phenyl]ethynyl}phenoxy)acetic acid] yielded an IC50 of 106 nM.
In turn, `CN(C)C(=O)c1ccc(C#Cc2cc(Cl)ccc2OCC(=O)O)cc1` [Example 125, [4-chloro-2-({4-[(dimethylamino)carbonyl]phenyl}ethynyl)phenoxy]acetic acid] returned an IC50 of 57 nM.
`O=C(O)COc1ccc(Cl)cc1C#Cc1cccc(C(=O)N2CCOCC2)c1` [Example 126, (4-chloro-2-{[3-(morpholin-4-ylcarbonyl)phenyl]ethynyl}phenoxy)acetic acid] displayed an IC50 of 60 nM.
`CN(C)C(=O)c1cccc(C#Cc2cc(Cl)ccc2OCC(=O)O)c1` [Example 127, [4-chloro-2-({3-[(dimethylamino)carbonyl]phenyl}ethynyl)phenoxy]acetic acid] yielded an IC50 of 68 nM.
`CCCS(=O)(=O)c1cccc(C#Cc2cc(Cl)cnc2OCC(=O)O)c1` [Example 128, [(5-chloro-3-{[3-(propylsulfonyl)phenyl]ethynyl}pyridin-2-yl)oxy]acetic acid] displayed a 50% inhibitory concentration (IC50) of 63 nM.
With `CCCS(=O)(=O)c1ccc(F)c(C#Cc2cc(Cl)cnc2OCC(=O)O)c1` [Example 129, [(5-chloro-3-{[2-fluoro-5-(propylsulfonyl)phenyl]ethynyl}pyridin-2-yl)oxy]acetic acid] the figure was 10 nM; with `O=C(O)COc1ccc(Cl)cc1C#Cc1cc(S(=O)(=O)C(F)(F)F)ccc1Cl` [Example 130, [4-chloro-2-({2-chloro-5-[(trifluoromethyl)sulfonyl]phenyl}ethynyl)phenoxy]acetic acid], 9 nM; with `CCCS(=O)(=O)c1cccc(C#Cc2cc(-c3sc(C)nc3C)ccc2OCC(=O)O)c1` [Example 132, (4-(2,4-dimethyl-1,3-thiazol-5-yl)-2-{[3-(propylsulfonyl)phenyl]ethynyl}phenoxy)acetic acid], 68 nM.
Take `CCCS(=O)(=O)c1cccc(C#Cc2cc(-c3ccsc3)ccc2OCC(=O)O)c1` [Example 133, [2-{[3-(propylsulfonyl)phenyl]ethynyl}-4-(3-thienyl)phenoxy]acetic acid]: the IC50 is 23 nM.
Consider `CCCS(=O)(=O)c1cccc(C#Cc2cc(-c3cccs3)ccc2OCC(=O)O)c1` [Example 134, [2-{[3-(propylsulfonyl)phenyl]ethynyl}-4-(2-thienyl)phenoxy]acetic acid], for which the IC50 was found to be 15 nM.
With `CCCS(=O)(=O)c1cccc(C#Cc2cc(-c3cnn(C)c3)ccc2OCC(=O)O)c1` [Example 135, (4-(1-methyl-1H-pyrazol-4-yl)-2-{[3-(propylsulfonyl)phenyl]ethynyl}phenoxy)acetic acid] the figure was 530 nM; with `CCCS(=O)(=O)c1cccc(C#Cc2cc(-c3c(C)nn(C)c3C)ccc2OCC(=O)O)c1` [Example 136, [2-{[3-(Propylsulfonyl)phenyl]ethynyl}-4-(1,3,5-trimethyl-1H-pyrazol-4-yl)phenoxy]acetic acid], 360 nM.
`Cc1ccc(NS(C)(=O)=O)cc1C#Cc1cc(Cl)ccc1OCC(=O)O` [Example 137, [4-chloro-2-({2-methyl-5-[(methylsulfonyl)amino]phenyl}ethynyl)phenoxy]acetic acid]: the IC50 was determined as 70 nM. This IC50 lies about 5.1-fold lower than the previous one.
As for `Cc1ccc(N(C)S(C)(=O)=O)cc1C#Cc1cc(Cl)ccc1OCC(=O)O` [Example 138, [4-chloro-2-({2-methyl-5-[methyl(methylsulfonyl)amino]phenyl}ethynyl)phenoxy]acetic acid], the half-inhibitory concentration (IC50) came out at 150 nM.
Next, `Cc1ncc(S(=O)(=O)N(C)C)cc1C#Cc1cc(Cl)ccc1OCC(=O)O` [Example 139, [4-chloro-2-({5-[(dimethylamino)sulfonyl]-2-methylpyridin-3-yl}ethynyl)phenoxy]acetic acid]: 51 nM.

What is called IC50 is the point on the concentration scale where inhibition reaches its midpoint. A higher IC50 goes with lower potency.
